Experimental findings from patent US20230066268A1, “INDAZOLE DERIVATIVES AND METHODS OF USE THEREOF FOR THE TREATMENT OF HERPES VIRUSES” (Merck Sharp & Dohme LLC, priority 2019, published 2023) are described below.

Like-named read-outs stand apart in the source and are kept apart here. A value given as a limit tells only on which side of the number the result lay.

In experiment [1] the target is T1, Human cytomegalovirus DNA polymerase (Human cytomegalovirus, UniProt P08546).
T1 construct: made in house; host or cells: SF21 insect cells (baculovirus vector)
T1 sequence (P08546 whole entry): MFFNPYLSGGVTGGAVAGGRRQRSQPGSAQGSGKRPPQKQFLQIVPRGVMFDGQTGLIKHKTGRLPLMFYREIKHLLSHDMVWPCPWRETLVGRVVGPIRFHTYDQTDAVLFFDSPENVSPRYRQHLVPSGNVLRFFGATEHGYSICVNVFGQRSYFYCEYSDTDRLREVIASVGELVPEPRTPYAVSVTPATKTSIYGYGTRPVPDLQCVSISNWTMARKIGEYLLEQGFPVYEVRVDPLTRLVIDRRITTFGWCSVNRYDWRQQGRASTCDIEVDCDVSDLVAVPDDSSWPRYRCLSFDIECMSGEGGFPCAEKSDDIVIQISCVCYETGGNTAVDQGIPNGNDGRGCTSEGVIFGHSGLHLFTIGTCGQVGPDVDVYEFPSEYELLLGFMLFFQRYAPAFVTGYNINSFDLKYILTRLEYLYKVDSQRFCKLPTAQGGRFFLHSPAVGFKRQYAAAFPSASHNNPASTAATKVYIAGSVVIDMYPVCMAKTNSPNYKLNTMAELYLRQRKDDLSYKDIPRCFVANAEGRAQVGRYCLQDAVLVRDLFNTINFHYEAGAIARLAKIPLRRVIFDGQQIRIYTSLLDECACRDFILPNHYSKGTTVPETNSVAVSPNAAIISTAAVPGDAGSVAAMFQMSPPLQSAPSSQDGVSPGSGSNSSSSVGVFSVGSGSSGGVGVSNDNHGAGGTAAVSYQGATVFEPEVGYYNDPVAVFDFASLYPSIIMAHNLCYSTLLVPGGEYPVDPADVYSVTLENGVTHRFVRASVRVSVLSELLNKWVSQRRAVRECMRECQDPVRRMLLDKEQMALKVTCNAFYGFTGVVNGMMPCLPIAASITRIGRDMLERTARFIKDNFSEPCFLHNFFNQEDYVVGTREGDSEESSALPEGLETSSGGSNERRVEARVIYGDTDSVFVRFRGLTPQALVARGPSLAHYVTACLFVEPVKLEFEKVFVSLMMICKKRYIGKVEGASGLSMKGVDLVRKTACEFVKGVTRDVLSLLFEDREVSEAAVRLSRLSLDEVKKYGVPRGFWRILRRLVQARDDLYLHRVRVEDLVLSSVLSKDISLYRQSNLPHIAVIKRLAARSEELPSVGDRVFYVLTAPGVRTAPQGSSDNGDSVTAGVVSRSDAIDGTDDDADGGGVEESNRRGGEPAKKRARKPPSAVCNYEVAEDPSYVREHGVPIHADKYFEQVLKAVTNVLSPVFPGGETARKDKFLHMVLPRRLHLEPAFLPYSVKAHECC
As to the kind of experiment: CMV polymerase assay (AlphaLISA). The class given is biochemical. Conditions: polymerase assay of Example 27, HCMV polymerase 0.2 nM. On the procedure: (§1) CMV and VZV Polymerase Assays
(§2) Human cytomegalovirus and varicella zoster virus DNA polymerases were expressed via baculovirus vector in SF21 cells and purified. Heterodimeric nucleic acid substrate used in the herpesvirus polymerase reactions were generated by annealing a 59-mer template to a 17-mer digoxigenin-labeled primer. Polymerase (HCMV final concentration of 0.2 nM; VZV final concentration of 0.4 nM) was combined with an inhibitor compound or DMSO in assay buffer (10 mM HEPES, pH 7.5, 25 mM KCl, 25 mM NaCl, 5 mM MgCl2, 5% glycerol, 0.67 mg/mL bovine serum albumin, and 1 mM tris(2-carboxyethyl)phosphine)), and this mixture was pre-incubated for 30 minutes at room temperature in 384-well microtiter plates. The polymerization reaction was initiated by the addition of template/primer substrate (final concentration: 1.6 nM) and dNTPs (final concentration: 24 nM dCTP, 24 nMdGTP, 16 nM dATP, 16 nM dTTP, and 0.8 nM biotin-dUTP). After a 60 minute incubation period at 37° C., the reactions were terminated using quench buffer (25 mM HEPES pH 7.5, 100 mM NaCl, 0.25% Tween-20, 12 mM EDTA, and 1 mg/mL bovine serum albumin). Incorporation of biotinylated UTP was detected with 2.5-5 μg/mL anti-DIG AlphaLISA acceptor beads and 5-10 μg/mL streptavidin AlphaLISA donor beads (PerkinElmer). Compound effects were normalized to the window defined by the controls (DMSO only and pre-quenched wells) and were fit using a 4-parameter algorithm to report an IC50.

For experiment [2], the target named is T2, varicella zoster virus DNA polymerase (Varicella-zoster virus, UniProt P09252).
T2 construct: made in house; host or cells: SF21 insect cells (baculovirus vector)
T2 sequence (P09252 whole entry): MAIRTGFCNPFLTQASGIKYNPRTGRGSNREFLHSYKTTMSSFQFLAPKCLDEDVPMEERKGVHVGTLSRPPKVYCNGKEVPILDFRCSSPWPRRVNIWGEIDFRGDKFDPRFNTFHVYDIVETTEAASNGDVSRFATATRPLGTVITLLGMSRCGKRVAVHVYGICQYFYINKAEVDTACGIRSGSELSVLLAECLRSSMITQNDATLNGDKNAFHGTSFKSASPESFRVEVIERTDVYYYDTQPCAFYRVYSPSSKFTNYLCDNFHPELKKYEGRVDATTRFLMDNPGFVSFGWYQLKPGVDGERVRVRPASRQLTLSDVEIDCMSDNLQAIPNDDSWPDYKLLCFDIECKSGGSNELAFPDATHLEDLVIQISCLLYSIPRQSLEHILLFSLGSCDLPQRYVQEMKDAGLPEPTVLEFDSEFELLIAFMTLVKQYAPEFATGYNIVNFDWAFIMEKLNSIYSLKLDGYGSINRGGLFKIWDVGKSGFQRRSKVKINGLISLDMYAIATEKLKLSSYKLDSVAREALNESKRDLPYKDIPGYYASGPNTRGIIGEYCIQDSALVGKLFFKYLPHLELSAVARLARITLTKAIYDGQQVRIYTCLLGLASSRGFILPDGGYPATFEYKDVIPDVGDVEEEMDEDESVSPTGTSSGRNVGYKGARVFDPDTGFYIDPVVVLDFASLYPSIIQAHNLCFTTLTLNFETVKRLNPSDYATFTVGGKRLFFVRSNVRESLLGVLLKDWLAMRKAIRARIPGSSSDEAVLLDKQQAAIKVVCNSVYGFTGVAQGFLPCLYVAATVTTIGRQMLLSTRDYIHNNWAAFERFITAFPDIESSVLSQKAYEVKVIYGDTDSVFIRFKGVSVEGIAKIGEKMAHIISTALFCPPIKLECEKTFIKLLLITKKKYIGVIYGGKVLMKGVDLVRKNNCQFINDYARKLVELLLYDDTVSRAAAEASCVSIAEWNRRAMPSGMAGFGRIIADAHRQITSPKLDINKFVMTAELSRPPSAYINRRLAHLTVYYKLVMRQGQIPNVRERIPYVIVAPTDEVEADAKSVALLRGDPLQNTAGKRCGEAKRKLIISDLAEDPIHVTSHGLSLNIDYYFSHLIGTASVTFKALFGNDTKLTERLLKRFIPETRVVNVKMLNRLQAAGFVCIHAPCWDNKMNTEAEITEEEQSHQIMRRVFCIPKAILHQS
As to the kind of experiment: VZV polymerase assay (AlphaLISA). The class given is biochemical. Conditions: polymerase assay of Example 27, VZV polymerase 0.4 nM. How it is done:
as §1, §2
A general note: Bead proximity is the source of the signal in Alpha formats.

The test system of experiment [3] is HCMV Strain AD169 in MRC-5 cells. The experiment is described as follows: CMV cell assay. The format is cell-based. On the procedure:
(§3) MRCS and Vero cells were obtained from ATCC and were maintained at 37° C./5% CO2/90% relative humidity in Minimal Essential Medium with 10% fetal bovine serum, […], 100 units/mL penicillin and 100 ug/mL streptomycin. Assay plates were prepared by dispensing compounds dissolved in DMSO into wells of 384 well collagen-coated plates using an ECHO acoustic dispenser. Each test compound was tested in a 10-point, serial 3-fold dilution. Controls included uninfected cells and infected cells treated only with DMSO. Assays were initiated by mixing selected cells, in suspension, with virus, and dispensing 50 μl/well infected cells to pre-plated compounds. Plates were incubated at 37° C./5% CO2/90% relative humidity for ˜72 hours to permit genomic replication, and infected cells were lysed by the addition of an equal volume of lysis buffer (10 mM Tris-HCl, pH8, 50 mM KCl, 2 mM MgCl2, 0.45% NP-40, 0.45% Tween-20, and 100 μg/mL proteinase K). An aliquot of the lysate was then transferred to a 384-well PCR plate and incubated at 56° C. for 1 hour, and then at 95° C. for 10 minutes. Levels of a viral gene were measured in 10 ul qPCR assays using TaqMan® Gene Expression Master Mix (Applied Biosystems) and an 7900HT Fast Real-Time PCR System with 384-Well Block Module. 7-point, serial 10-fold dilutions of a plasmid standard were run on each plate to generate a standard curve, and genome copies numbers were calculated by plotting experimental Ct onto linear regression of the standard curve. Compound effects on viral genome copy number were normalized to the window defined by the controls. Calculated % effects were fit using a 4-parameter algorithm, and EC50 was reported.
(§4) HCMV: Strain AD169 was assayed in MRC-5 cells and was used at 0.05-0.1 pfu/cell. The assays were performed in either growth media or in the same media with 50% fetal bovine serum. Primer-probe set was Thermo Fisher Assay ID=AIFATFK. HSV-1: Strain F was assayed in Vero or MRCS cells and was used at 0.0005-0.004 pfu/cell in growth medium. Primer-probe set was Thermo Fisher Assay ID=AIBJZIB. HSV-2: Strain G was assayed in Vero or MRCS cells and was used at 0.004-0.4 pfu/cell in growth medium. Primer-probe set was Thermo Fisher Assay ID=AICSXOJ.

The subject of experiment [4] is HSV-1 Strain F in Vero or MRCS cells. As to the kind of experiment: Viral qPCR assay, HSV-1. The class given is cell-based. Conditions: read-out: HSV1 Cell (EC50), values marked *. On the procedure: as §3, §4
In experiment [5] the test system is HSV-2 Strain G in Vero or MRCS cells. As to the kind of experiment: Viral qPCR assay, HSV-2. The class given is cell-based. Conditions: read-out: HSV2 Cell (EC50), values marked *. How it is done: as §3, §4
In general terms: Quantitative PCR measures a nucleic acid by following its amplification.

The subject of experiment [6] is HSV-1, strain F in Vero cells. The experiment is described as follows: HSV CPE assay, HSV-1. The format is cell-based. How it is done:
(§5) Vero cells were maintained at 37° C./5% CO2/90% relative humidity in Dulbecco's Modified Eagle's Medium with 10% fetal bovine serum, […], 100 units/mL penicillin and 100 ug/mL streptomycin. For this assay, Vero cells (maintained at 37° C./5% CO2/90% relative humidity in Dulbecco's Modified Eagle's Medium with 10% fetal bovine serum, […], 100 units/mL penicillin and 100 μg/mL streptomycin) were seeded in 96-well microtiter plates and incubated for about 15 hours. They were then infected with HSV-1, strain F, or with HSV-2, strain G, at a multiplicity of infection known to result in 85-95% loss of cell viability during the assays, in the same media with 2% fetal bovine serum. Test compounds were dissolved in DMSO, and 6 point serial 10-fold dilutions in DMSO were prepared. Test compounds were added to infected cells, and the plates were incubated at 37° C./5% CO2/90% relative humidity for 5 days. Each plate contains cell control wells (cells only), virus control wells (cells plus virus), drug colorimetric control wells (drug only), background control wells (media only) and experimental wells (drug plus cells plus virus). Cytoprotection was assessed by the addition of Celltiter®96 Reagent (Promega, Madison, Wis.), according to manufacturer's recommendations. % cytopathic effect (CPE) reduction was calculated and IC50 (concentration inhibition virus replication by 50%) was reported.

The subject of experiment [7] is HSV-2, strain G in Vero cells. The experiment is described as follows: HSV CPE assay, HSV-2. The class given is cell-based. On the procedure:
as §5

Setting [8] is: Human betaherpesvirus 5, AD169, MRC5, read-out: CMV Cell^b (EC50), footnote b: assay described in Example 25.
Where [9] appears, read: Human betaherpesvirus 5, AD169, MRC5, footnote b: assay described in Example 25, read-out: CMV Cell^b (EC50).
The mark [10] stands for this setting: Human alphaherpesvirus 1, starred values: viral qPCR assay of Example 26, ~72 hours, Vero or MRCS cells.
The mark [11] stands for this setting: Human alphaherpesvirus 2, starred values: viral qPCR assay of Example 26, ~72 hours, Vero or MRCS cells.
[12] abbreviates: Human alphaherpesvirus 1, 120 h, unstarred values: CPE assay of Example 25, Vero cells, 5 days, read-out: HSV1 Cell^b (EC50).
The mark [13] stands for this setting: Human alphaherpesvirus 2, 120 h, unstarred values: CPE assay of Example 25, Vero cells, 5 days, read-out: HSV2 Cell^b CPE(EC50).

With `NCCn1nc(C(=O)NCc2ccc(Cl)cc2)c2ccc(NCc3cnns3)c(Cl)c21` [Compound 3], the IC50 (as a rule, the concentration at which inhibition is half-maximal) in experiment [1] (CMV^a (IC50)) amounted to 9.6 nM; in experiment [2] (VZV^a (IC50)), 2.9 nM. For the same compound, the EC50 (commonly the concentration that produces a half-maximal response) amounted to 71 nM in experiment [3] (setting [8]); 85 nM in experiment [4] (Human alphaherpesvirus 1, Vero, 72 h); 170 nM in experiment [5] (Human alphaherpesvirus 2, Vero, 72 h).
Take `Cn1nc(C(=O)NCc2ccc(Cl)cc2)c2c3c(ccc21)C(N1CCOCC1)CC3` (stereo not shown) [Compound 17]: the IC50 came out at 150 nM in experiment [1] (read-out: CMV^a (IC50)) and 14 nM in experiment [2] (read-out: VZV^a (IC50)). Besides, the EC50 in experiment [3] (setting [9]) is 1000 nM; in experiment [4] (setting [10]), 310 nM; in experiment [5] (setting [11]) it was 350 nM.
As to `Cc1c(CN2CCOCC2)cc(C)c2c1c(C(=O)NCc1ccc(Cl)cc1)nn2C` [Compound 19], the IC50 was 280 nM in experiment [1] (read-out: CMV^a (IC50)) and 66 nM in experiment [2] (read-out: VZV^a (IC50)). In addition, the EC50 in experiment [3] (setting [9]) was determined as 6100 nM; in experiment [6] (setting [12]) it was 1800 nM; in experiment [7] (setting [13]), 5300 nM.
Consider `Cn1nc(C(=O)NCc2ccc(Cl)cc2)c2c(O)c(CN3CCOCC3)ccc21` [Compound 20], for which the IC50 in experiment [1] (read-out: CMV^a (IC50)) came to 390 nM; in experiment [2] (read-out: VZV^a (IC50)), 66 nM. In addition, the results for the EC50 in experiment [3] (setting [9]), in experiment [6] (setting [12]) and in experiment [7] (setting [13]) were over 9900 nM, over 40000 nM and over 40000 nM, respectively.
In the case of `Cn1nc(C(=O)NCc2ccc(Cl)cc2)c2c(F)c(CN3CCOCC3)ccc21` [Compound 21], the IC50 was found to be 480 nM in experiment [1] (read-out: CMV^a (IC50)) and 180 nM in experiment [2] (read-out: VZV^a (IC50)). The EC50 in experiment [3] (setting [9]) worked out at 7200 nM; in experiment [6] (setting [12]) it was 2200 nM; in experiment [7] (setting [13]) it was 3600 nM.
Turning to `Cc1c(N2CCn3nncc3C2)ccc2c(C(=O)NCc3ccc(C#N)cc3)nn(C[C@H](C)NC(=O)C(C)C)c12` [Compound 32], the IC50 in experiment [1] (CMV^a (IC50)) is 4.2 nM; in experiment [2] (VZV^a (IC50)), 1.8 nM. In addition, the EC50 in experiment [3] (setting [8]) came out at 60 nM; in experiment [6] (Human alphaherpesvirus 1, Vero, 120 h, read-out: HSV1 Cell^b (EC50), unstarred values: CPE assay of Example 25, Vero cells, 5 days) it was 14000 nM; in experiment [7] (Human alphaherpesvirus 2, Vero, 120 h, read-out: HSV2 Cell^b CPE(EC50), unstarred values: CPE assay of Example 25, Vero cells, 5 days), 13000 nM.
Regarding `Cn1nc(C(=O)NCc2ccc(Cl)cc2)c2cc(C[C@H]3COC(=O)N3)ccc21` [Compound 33], the values for the IC50 in experiment [1] (read-out: CMV^a (IC50)) and in experiment [2] (read-out: VZV^a (IC50)) were 78 nM and 35 nM, respectively. The results for the EC50 in experiment [3] (setting [9]), in experiment [4] (setting [10]) and in experiment [5] (setting [11]) were 160 nM, 200 nM and 110 nM, respectively.
On the same counts, the results for `Cn1nc(C(=O)NCc2ccc(Cl)cc2)c2cc(C[C@H]3CCC(=O)N3)ccc21` [Compound 34] are 67 nM, 24 nM, 330 nM, 220 nM and 240 nM.
